Experimental data taken from the NIST ThermoML archive (doi:10.1016/j.jct.2018.08.005).

Experiment: xn = mol fraction of the nth substance listed
Details: Liquid; for mass density: Vibrating tube method; for speed of sound: Frequency=3 MHz, Pulse-echo method

CCOC(F)(C(F)(F)C(F)(F)C(F)(F)F)C(F)(C(F)(F)F)C(F)(F)F (stereo not given) [2-trifluoromethyl-3-ethoxydodecafluorohexane] + CC(C)OC(C)C
Details	mass density, x1 = 0.25 [kg/m3]	mass density, x1 = 0.375 [kg/m3]	mass density, x1 = 0.5 [kg/m3]	mass density, x1 = 0.625 [kg/m3]	mass density, x1 = 0.75 [kg/m3]	speed of sound, x1 = 0.25 [m/s]	speed of sound, x1 = 0.375 [m/s]	speed of sound, x1 = 0.5 [m/s]	speed of sound, x1 = 0.625 [m/s]	speed of sound, x1 = 0.75 [m/s]
333.15 K, 100000 kPa	–	–	–	–	1580.9	–	–	–	–	–
333.15 K, 110000 kPa	1138.5	1274.2	1393.9	1499.9	1591.8	–	–	–	–	–
333.15 K, 120000 kPa	1146.4	1282.9	1403.2	1509.7	1602.1	–	–	–	–	–
333.15 K, 130000 kPa	1153.9	1291.2	1412.1	1519.2	1611.9	–	–	–	–	–
333.15 K, 140000 kPa	1160.9	1299	1420.5	1528.1	1621.2	–	–	–	–	–
343.15 K, 100 kPa	–	1091.4	1197	1291.8	1376.3	–	588	563	550.5	540.2
343.15 K, 10000 kPa	1000.6	1121.3	1229.2	1325.6	1411.1	–	–	–	–	–
343.15 K, 20000 kPa	1021.9	1145.1	1254.7	1352.4	1438.8	792.6	745.6	714	697.6	681.6
343.15 K, 30000 kPa	1039.6	1164.8	1275.9	1374.8	1462	–	–	–	–	–
343.15 K, 40000 kPa	1055.2	1182.1	1294.4	1394.4	1482.3	911.7	858.7	822.8	803.3	783.8
343.15 K, 50000 kPa	1068.8	1197.3	1310.8	1411.7	1500.3	–	–	–	–	–
343.15 K, 60000 kPa	1081.1	1210.9	1325.4	1427.3	1516.5	1007.3	949.5	911	889.2	867
343.15 K, 70000 kPa	1092.4	1223.4	1338.9	1441.4	1531.3	–	–	–	–	–
343.15 K, 80000 kPa	1102.8	1234.9	1351.3	1454.6	1544.9	1089.6	1026.7	987	963.1	938.2
343.15 K, 90000 kPa	1112.5	1245.7	1362.8	1466.8	1557.6	–	–	–	–	–
343.15 K, 100000 kPa	1121.5	1255.8	1373.5	1478.2	1569.5	1161.8	1095.1	1054.1	1028.7	1001.7
343.15 K, 110000 kPa	1130.1	1265.3	1383.8	1489.1	1580.8	–	–	–	–	–
343.15 K, 120000 kPa	1138.2	1274.2	1393.3	1499.3	1591.4	–	–	–	–	–
343.15 K, 130000 kPa	1145.9	1282.7	1402.5	1509.1	1601.6	–	–	–	–	–
343.15 K, 140000 kPa	1153.3	1290.7	1411.2	1518.2	1611.2	–	–	–	–	–
353.15 K, 100 kPa	–	–	–	1271.2	1355.1	–	–	–	–	512.6
353.15 K, 10000 kPa	986.5	1105.6	1212.9	1308.2	1393	–	–	–	–	–
353.15 K, 20000 kPa	1009.3	1131.2	1240.1	1337	1422.7	767.9	724.5	692.8	676.5	660.7
353.15 K, 30000 kPa	1028.2	1152.3	1262.7	1360.8	1447.4	–	–	–	–	–
353.15 K, 40000 kPa	1044.4	1170.2	1281.9	1381.2	1468.5	889.5	841.4	804.5	785.2	765.7
353.15 K, 50000 kPa	1058.7	1186	1298.8	1399.2	1487.3	–	–	–	–	–
353.15 K, 60000 kPa	1071.6	1200.3	1314.2	1415.5	1504.2	986.5	935.6	894	872.6	850.4
353.15 K, 70000 kPa	1083.3	1213.3	1328.1	1430.3	1519.5	–	–	–	–	–
353.15 K, 80000 kPa	1094.2	1225.2	1340.9	1443.9	1533.7	–	1015.6	971	947.8	923.1
353.15 K, 90000 kPa	1104.1	1236.2	1352.7	1456.5	1546.8	–	–	–	–	–
353.15 K, 100000 kPa	1113.4	1246.6	1363.8	1468.2	1559	1142.6	–	1039.1	1014.4	987.2
353.15 K, 110000 kPa	1122.1	1256.3	1374.2	1479.2	1570.4	–	–	–	–	–
353.15 K, 120000 kPa	1130.4	1265.4	1384.1	1489.7	1581.4	–	–	–	–	–
353.15 K, 130000 kPa	1138.3	1274.2	1393.5	1499.7	1591.7	–	–	–	–	–
353.15 K, 140000 kPa	1145.6	1282.4	1402.4	1509	1601.4	–	–	–	–	–
363.15 K, 10000 kPa	972.2	1089.6	1196.4	1290.3	1374.4	–	–	–	–	–
363.15 K, 20000 kPa	996.8	1117.1	1225.6	1321.2	1406.2	–	–	–	–	–
363.15 K, 30000 kPa	1016.8	1139.3	1249.3	1346.4	1432.1	–	–	–	–	–
363.15 K, 40000 kPa	1033.8	1158.1	1269.5	1367.8	1454.3	–	–	–	–	–
363.15 K, 50000 kPa	1048.7	1174.8	1287.3	1386.6	1473.8	–	–	–	–	–
363.15 K, 60000 kPa	1062	1189.6	1303.1	1403.4	1491.2	–	–	–	–	–
